# Experimental data taken from patent US20240124491A1, “METHODS AND COMPOUNDS FOR TREATING FRIEDREICH'S ATAXIA” (Design Therapeutics, Inc., priority 2021, published 2024).
# Tested on: human FXN
# Assay: EC50 assay: FXN mRNA expression by qRT-PCR in GM15850 cells after 48 hrs compound treatment
# Type: cell-based
# Settings: Homo sapiens, 48 hrs incubation, hFXN expression normalized to hGAPDH (qRT-PCR), read-out: EC50 WT (nM, 48 hr)
# How it was run: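 FXN transcript, normalized to GAPDH by TaqMan qRT-PCR, read out after 48 hrs of compound on GM15850 cells plated at 150,000 per well. Dosing used five 3-fold steps from 150 nM final, vehicle 0.01% DMSO.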
row,SMILES,EC50 [nM]
1,Cc1cc(F)cc(C)c1Oc1ccc(C(C)(C)O)cc1-c1cn(C)c(=O)c2[nH]c(C(=O)NC3CCN(CC#CC#CC4CCN(CCOCCOCCOCCOCCOCCOCCOCCNC(=O)CCNC(=O)c5nc(NC(=O)CCNC(=O)c6cc(NC(=O)c7nc(NC(=O)CCNC(=O)c8cc(NC(=O)c9nccn9C)cn8C)cn7C)cn6C)cn5C)CC4)CC3)cc12 [Compound 175],< 100
2,Cc1sc2c(c1C)C(c1ccc(N)cc1)=N[C@@H](CC(=O)N1CCC(C#CC#CC3CCN(CCOCCOCCOCCOCCNC(=O)CCNC(=O)c4nc(NC(=O)CCNC(=O)c5cc(NC(=O)c6nc(NC(=O)CCNC(=O)c7cc(NC(=O)c8nccn8C)cn7C)cn6C)cn5C)cn4C)CC3)CC1)c1nnc(C)n1-2 [Compound 119],< 100
3,Cc1sc2c(c1C)C(c1ccc(Cl)cc1)=N[C@@H](CC(=O)Nc1ccc(C#CC3CCN(CCOCCOCCOCCOCCOCCOCCNC(=O)CCNC(=O)c4nc(NC(=O)CCNC(=O)c5cc(NC(=O)c6nc(NC(=O)CCNC(=O)c7cc(NC(=O)c8nccn8C)cn7C)cn6C)cn5C)cn4C)CC3)cc1)c1nnc(C)n1-2 [Compound 11],< 100
4,Cc1sc2c(c1C)C(c1ccc(Cl)cc1)=N[C@@H](CC(=O)N1CCC(C#CC#CCN(CCOCCOCCOCCOCCOCCNC(=O)CCNC(=O)c3nc(NC(=O)CCNC(=O)c4cc(NC(=O)c5nc(NC(=O)CCNC(=O)c6cc(NC(=O)c7nccn7C)cn6C)cn5C)cn4C)cn3C)CC(O)COCC(O)CO)CC1)c1nnc(C)n1-2 (some centres unmarked) [Compound 122],100 to 500
5,Cc1sc2c(c1C)C(c1ccc(Cl)cc1)=N[C@@H](CC(=O)NC(C)(C)C#CC#CCNCCOCCOCCOCCOCCOCCOCCNC(=O)CCNC(=O)c1nc(NC(=O)CCNC(=O)c3cc(NC(=O)c4nc(NC(=O)CCNC(=O)c5cc(NC(=O)c6nccn6C)cn5C)cn4C)cn3C)cn1C)c1nnc(C)n1-2 [Compound 130],< 100
6,COc1ccc2c(c1)C(c1ccc(Cl)cc1)=N[C@@H](CC(=O)N1CCC(C#CC#CC3CCN(CCOCCOCCOCCOCCNC(=O)CCNC(=O)c4nc(NC(=O)CCNC(=O)c5cc(NC(=O)c6nc(NC(=O)CCNC(=O)c7cc(NC(=O)c8nccn8C)cn7C)cn6C)cn5C)cn4C)CC3)CC1)c1nnc(C)n1-2 [Compound 61],< 100
7,Cc1sc2c(c1C)C(c1ccc(Cl)cc1)=N[C@@H](CC(=O)N1CCC(N3CCN(CCOCCOCCOCCOCCOCCOCCNC(=O)CCNC(=O)c4nc(NC(=O)CCNC(=O)c5cc(NC(=O)c6nc(NC(=O)CCNC(=O)c7cc(NC(=O)c8nccn8C)cn7C)cn6C)cn5C)cn4C)CC3)CC1)c1nnc(C)n1-2 [Compound 51],100 to 500
8,Cc1sc2c(c1C)C(c1ccc(Cl)cc1)=N[C@H](CC(=O)NC1CCN(CCOCCOCCOCCOCCOCCC(=O)NCCCN(C)CCCNC(=O)CCNC(=O)c3nc(NC(=O)CCNC(=O)c4cc(NC(=O)c5nc(NC(=O)CCNC(=O)c6cc(NC(=O)c7nccn7C)cn6C)cn5C)cn4C)cn3C)CC1)c1nnc(C)n1-2 [Compound 39],> 500
9,Cc1sc2c(c1C)C(c1ccc(Cl)cc1)=N[C@@H](CC(=O)NC1CCN(CCCCCN3CCN(CCOCCOCCOCCOCCOCCNC(=O)CCNC(=O)c4nc(NC(=O)CCNC(=O)c5cc(NC(=O)c6nc(NC(=O)CCNC(=O)c7cc(NC(=O)c8nccn8C)cn7C)cn6C)cn5C)cn4C)CC3)CC1)c1nnc(C)n1-2 [Compound 107],100 to 500
10,Cc1sc2c(c1C)C(c1ccc(Cl)cc1)=N[C@@H](CC(=O)N1CCC(CN3CCN(CCOCCOCCOCCOCCOCCOCCOCCNC(=O)CCNC(=O)c4nc(NC(=O)CCNC(=O)c5cc(NC(=O)c6nc(NC(=O)CCNC(=O)c7cc(NC(=O)c8nccn8C)cn7C)cn6C)cn5C)cn4C)CC3)CC1)c1nnc(C)n1-2 [Compound 55],100 to 500
11,CCCCCCCC(=O)N(CC#CC#Cc1ccc(NC(=O)C[C@@H]2N=C(c3ccc(Cl)cc3)c3c(sc(C)c3C)-n3c(C)nnc32)cc1)CCOCCOCCOCCOCCOCCNC(=O)CCNC(=O)c1nc(NC(=O)CCNC(=O)c2cc(NC(=O)c3nc(NC(=O)CCNC(=O)c4cc(NC(=O)c5nccn5C)cn4C)cn3C)cn2C)cn1C [Compound 201],> 500
12,COc1ccc2c(c1)C(c1ccc(Cl)cc1)=N[C@@H](CC(=O)N1CCN(C3CCN(CCOCCOCCOCCOCCOCCOCCNC(=O)CCNC(=O)c4nc(NC(=O)CCNC(=O)c5cc(NC(=O)c6nc(NC(=O)CCNC(=O)c7cc(NC(=O)c8nccn8C)cn7C)cn6C)cn5C)cn4C)CC3)CC1)c1nnc(C)n1-2 [Compound 54],> 500
13,COc1ccc2c(c1)C(c1ccc(Cl)cc1)=N[C@@H](CC(=O)NC1CCN(CCOCCOCCOCCN3CCN(CCOCCOCCOCCNC(=O)CCNC(=O)c4nc(NC(=O)CCNC(=O)c5cc(NC(=O)c6nc(NC(=O)CCNC(=O)c7cc(NC(=O)c8nccn8C)cn7C)cn6C)cn5C)cn4C)CC3)CC1)c1nnc(C)n1-2 [Compound 24],100 to 500
14,Cc1sc2c(c1C)C(c1ccc(Cl)cc1)=N[C@@H](CC(=O)N[C@H]1CC[C@@H](N(C)CCOCCOCCOCCOCCOCCOCCOCCOCCNC(=O)CCNC(=O)c3nc(NC(=O)CCNC(=O)c4cc(NC(=O)c5nc(NC(=O)CCNC(=O)c6cc(NC(=O)c7nccn7C)cn6C)cn5C)cn4C)cn3C)CC1)c1nnc(C)n1-2 [Compound 87],< 100
15,Cc1cc(F)cc(C)c1Oc1ccc(C(C)(C)O)cc1-c1cn(C)c(=O)c2[nH]c(C(=O)NC3CCN(CC#CC#CC4CCN(CCOCCOCCOCCOCCOCCNC(=O)CCNC(=O)c5nc(NC(=O)CCNC(=O)c6cc(NC(=O)c7nc(NC(=O)CCNC(=O)c8cc(NC(=O)c9nccn9C)cn8C)cn7C)cn6C)cn5C)CC4)CC3)cc12 [Compound 158],< 100
16,COCCOCCOCCOCCOCCOCCOc1cc(NC(=O)C[C@@H]2N=C(c3ccc(Cl)cc3)c3c(sc(C)c3C)-n3c(C)nnc32)ccc1OCCOCCOCCOCCOCCOCCOCCOCCOCCNC(=O)CCNC(=O)c1nc(NC(=O)CCNC(=O)c2cc(NC(=O)c3nc(NC(=O)CCNC(=O)c4cc(NC(=O)c5nccn5C)cn4C)cn3C)cn2C)cn1C [Compound 211],100 to 500
17,Cc1sc2c(c1C)C(c1ccc(Cl)cc1)=N[C@@H](CC(=O)Nc1ccc(N3CCN(CC4CCN(CCOCCOCCOCCNC(=O)CCNC(=O)c5nc(NC(=O)CCNC(=O)c6cc(NC(=O)c7nc(NC(=O)CCNC(=O)c8cc(NC(=O)c9nccn9C)cn8C)cn7C)cn6C)cn5C)CC4)CC3)cc1)c1nnc(C)n1-2 [Compound 7],100 to 500
18,Cc1sc2c(c1C)C(c1ccc(Cl)cc1)=N[C@@H](CC(=O)N1CC(C#CC#CC3CN(CCOCCOCCOCCOCCOCCOCCNC(=O)CCNC(=O)c4nc(NC(=O)CCNC(=O)c5cc(NC(=O)c6nc(NC(=O)CCNC(=O)c7cc(NC(=O)c8nccn8C)cn7C)cn6C)cn5C)cn4C)C3)C1)c1nnc(C)n1-2 [Compound 127],< 100
19,Cc1sc2c(c1C)C(c1ccc(Cl)cc1)=N[C@@H](CC(=O)N1CCC(C#CC#CC3CCN(CCOCCOCCOCCOCCOCCOCCNC(=O)CCNC(=O)c4nc(NC(=O)CCNC(=O)c5cc(NC(=O)c6nc(NC(=O)CCNC(=O)c7cc(NC(=O)c8nccn8C)cn7C)cn6C)cn5C)cn4C)CC3)CC1)c1nnc(C)n1-2 [Compound 141],< 100
20,Cc1sc2c(c1C)C(c1ccc(Cl)cc1)=N[C@@H](CC(=O)Nc1ccc(N3CCN(CC4CCN(CCOCCOCCOCCOCCOCCNC(=O)CCNC(=O)c5nc(NC(=O)CCNC(=O)c6cc(NC(=O)c7nc(NC(=O)CCNC(=O)c8cc(NC(=O)c9nccn9C)cn8C)cn7C)cn6C)cn5C)CC4)CC3)cc1)c1nnc(C)n1-2 [Compound 5],100 to 500
21,COc1ccc2c(c1)C(c1ccc(Cl)cc1)=N[C@@H](CC(=O)N1CCC(CN3CCN(CCOCCOCCOCCOCCOCCOCCOCCNC(=O)CCNC(=O)c4nc(NC(=O)CCNC(=O)c5cc(NC(=O)c6nc(NC(=O)CCNC(=O)c7cc(NC(=O)c8nccn8C)cn7C)cn6C)cn5C)cn4C)CC3)CC1)c1nnc(C)n1-2 [Compound 56],100 to 500
22,Cc1sc2c(c1C)C(c1ccc(Cl)cc1)=N[C@@H](CC(=O)N1CCC(C#CC#CC3CCN(CCOCCOCCOCCOCCNC(=O)CCNC(=O)c4nc(NC(=O)CCNC(=O)c5cc(NC(=O)c6nc(NC(=O)CCNC(=O)c7cc(NC(=O)c8nccn8C)cn7C)cn6C)cn5C)cn4C)CC3)CC1)c1nnc(C)n1-2 [Compound 60],< 100
23,"Cn1cc(NC(=O)c2nc(NC(=O)CCNC(=O)c3cc(NC(=O)c4nccn4C)cn3C)cn2C)cc1C(=O)NCCC(=O)Nc1cn(C)c(C(=O)NCCC(=O)NCCOCCOCCOCCOCCOCCOCCOCCOCCOc2ccc(NC(=O)c3cc4c(-c5cc(S(C)(=O)=O)ccc5Oc5ccc(F)cc5F)cn(C)c(=O)c4[nH]3)cc2)n1 [Compound 207, N-(5-{[2-({2-[(2-{[26-(4-{14-[2-(2,4-difluorophenoxy)-5-methanesulfonylphenyl]-6-methyl-7-oxo-1H-pyrrolo[2,3-c]pyridine-2-amido}phenoxy)-3,6,9,12,15,18,21,24-octaoxahexacosan-1-yl]carbamoyl]ethyl)carbamoyl]-1-methylimidazol-4-yl}carbamoyl)ethyl]carbamoyl}-1-methylpyrrol-3-yl)-1-methyl-4-(3-{[1-methyl-4-(1-methylimidazole-2-amido)pyrrol-2-yl]formamido]propanamido)imidazole-2-carboxamide]",< 100
24,Cc1sc2c(c1C)C(c1ccc(Cl)cc1)=N[C@@H](CC(=O)Nc1ccc(C#CC3CCN(CCOCCOCCOCCOCCOCCNC(=O)CCNC(=O)c4nc(NC(=O)CCNC(=O)c5cc(NC(=O)c6nc(NC(=O)CCNC(=O)c7cc(NC(=O)c8nccn8C)cn7C)cn6C)cn5C)cn4C)CC3)cc1)c1nnc(C)n1-2 [Compound 12],< 100
25,Cc1sc2c(c1C)C(c1ccc(Cl)cc1)=N[C@@H](CC(=O)N1CCC(N3CCN(CCOCCOCCOCCOCCC(=O)NCCCN(CCCNC(=O)CCNC(=O)c4nc(NC(=O)CCNC(=O)c5cc(NC(=O)c6nc(NC(=O)CCNC(=O)c7cc(NC(=O)c8nccn8C)cn7C)cn6C)cn5C)cn4C)CC(F)(F)F)CC3)CC1)c1nnc(C)n1-2 [Compound 69],< 100
26,Cc1sc2c(c1C)C(c1ccc(Cl)cc1)=N[C@@H](CC(=O)N[C@H]1CC[C@H](N(C)CCOCCOCCOCCOCCOCCOCCOCCOCCNC(=O)CCNC(=O)c3nc(NC(=O)CCNC(=O)c4cc(NC(=O)c5nc(NC(=O)CCNC(=O)c6cc(NC(=O)c7nccn7C)cn6C)cn5C)cn4C)cn3C)CC1)c1nnc(C)n1-2 [Compound 22],< 100
